# According to patent US5401648A, “Peptides having peptidyl transferase inhibiting activity and methods of use thereof” (University of Maryland College Park, priority 1993, dated 1995):
# Assays:
# peptidyl transferase = experiment: Fragment reaction peptidyl transferase assay with 70S ribosomes; assay type: biochemical, B. subtilis BR151; settings: preincubation of inhibitor with ribosomes prior to addition to other reactants
# Description: (§1) The fragment reaction was used to assay peptidyl transferase activity. Reaction mixes consisted of 60 mM Tris-HCl (pH 7.4), 400 mM KCl, 20 mM magnesium sulfate, and 1 mM neutralized puromycin in 50 μl, to which was added 25 μl absolute ethanol. Unless specifically noted, 70S ribosomes purified from B. subtilis BR151 as described in Spedding^1/ were added to 0.55 uM ^35 S-labeled N-formylmethionine, charged to tRNA and digested with endonuclease T1 as described by Marcker^2/, was added to each reaction at 1×10^6 to 2×10^6 cpm.
# (§2) Peptide inhibitors were typically preincubated with the ribosomes prior to addition to the other reactants. Antibiotic inhibitors such as chloramphenicol were added to reaction mixes with the ribosomes but without the preincubation step. […] Peptidyl transferase reaction mixes were incubated on ice for 1 h, and were terminated by addition of 50 μl of 0.3M sodium acetate saturated with magnesium sulfate followed by 1 ml of ethyl acetate. The ethyl acetate phase was counted for radioactivity. All peptidyl transferase assays were performed in duplicate or triplicate, and the replicates varied by less than 5%. In separate experiments, the inhibitory activity of a single peptide preparation on a single ribosome preparation varied by as much as 10%.
# [1] = tested on: peptidyl transferase activity of the 50S subunits; experiment: Fragment reaction peptidyl transferase assay with dissociated 50S subunits; assay type: biochemical, B. subtilis BR151
# Description: as §1, §2
# The 50S subunit contains the target for the 5-mer peptide. […]
Compound,effect of preincubation with ribosomes on inhibitory effect on peptidyl transferase (peptidyl transferase),effect on the peptidyl transferase activity of the 50S subunits [1]
O=C(N[C@H](CO)[C@H](O)c1ccc([N+](=O)[O-])cc1)C(Cl)Cl [chloramphenicol],failed to increase,
"4-mer: 4-mer comparison peptide (SEQ ID NO: 5), sequence not printed in the text (MVKT)",,little effect
